Assay results: US20210283139A1, “BIFUNCTIONAL MOLECULES FOR TARGETING UCHL5” (AMPHISTA THERAPEUTICS LTD, priority 2018, published 2021)

Assays:
Assay type in all cases: cell-based
Brd3 [1] = target: T1, Brd3 (Homo sapiens, UniProt Q15059); experiment: Concentration-dependent BET degradation, immunoblot, HEK293 cells; set-up: endogenous in cells; host or cells: HEK293; settings: HEK293, Brd3, 6 h treatment, 1 nM-10 μM; for Dmax: read-out: Dmax (%) maximum degradation observed
Experimental: (§1) Cell culture. HeLa (CCL-2) and HEK293 (CRL-1573) cells were purchased from ATCC and cultured in DMEM medium (Gibco) supplemented with 10% FBS, 100 μg/mL penicillin/streptomycin and L-glutamine. Cells were grown at 37° C. and 5% CO2, and were kept no longer than 30 passages. All cell lines were routinely tested for mycoplasma contamination using MycoAlert kit from Lonza.
(§2) Immunoblotting. proteins were separated by SDS-PAGE on NuPage 4-12% Bis-Tris gels, followed by transfer to Amersham Protran 0.45 NC nitrocellulose membrane (GE Healthcare) using wet transfer. Membranes were blocked using 5% w/v milk in Tris-buffered saline (TBS) with 0.1% Tween-20. Blots were probed (overnight at 4° C.) using anti-Brd2 (Abcam ab139690, 1:2,000 dilution), anti-Brd3 (Abcam ab50818, 1:500 dilution), and anti-Brd4 (Abcam ab128874, 1:1,000 dilution) primary antibodies, as appropriate. The next day, blots were washed with TBST and incubated (1 hr at RT) with anti-Tubulin hFAB-rhodamine (BioRad, 12004166) primary antibody, and either anti-rabbit IRDye 800CW (Licor 1:10,000 dilution) or anti-mouse IRDye 800CW (Licor 1:10,000 dilution) secondary antibody. Blots were developed using a Bio-Rad ChemiDoc MP Imaging System, and band quantification was performed using Image Studio software (LiCor). Band intensities were normalized to the tubulin loading control and reported as % of the average 0.1% DMSO vehicle intensity. Degradation data was plotted and analysed using Prism (Graphpad, version 8).
(§3) HeLa (5×10^5) and HEK293 (1×10^6) cells were seeded in standard 6-well plates (2 mL medium) overnight before treatment with compounds at the desired concentration (1 nM-10 μM), with a final DMSO concentration of 0.1% v/v. After 6 h treatment time, cells were washed with DPBS (Gibco) and lysed using 85 μL RIPA buffer (Sigma-Aldrich) supplemented with cOmplete Mini EDTA-free protease inhibitor cocktail (Roche) and benzonase. Lysates were clarified by centrifugation (20,000g, 10 min, 4° C.) and the total protein content of the supernatant was quantified using a Bradford colorimetric assay. Samples were prepared using equal amounts of total protein and LDS sample buffer (Invitrogen.
(§4) Representative blots in FIG. 3 show depletion of Brd2, Brd3 and Brd4 protein levels following treatment with increasing concentrations of representative compounds. Band intensities were normalized to the β-tubulin loading control and reported as % of the average 0.1% DMSO vehicle intensity, with each point representing mean±SEM of two independent experiments (n=2). Degradation data was plotted and analysed using Prism (Graphpad, version 8)

Brd2 [2] = target: T2, Brd2 (Homo sapiens, UniProt P25440); experiment: as above; set-up: endogenous in cells; host or cells: HEK293; settings: HEK293, Brd2, 6 h treatment, 1 nM-10 μM; for Dmax: read-out: Dmax (%) maximum degradation observed
Experimental: as §1, §2, §3, §4

Brd4 (S) [3] = target: T3, Brd4 (S) (Homo sapiens, UniProt O60885); experiment: Time-dependent BET degradation, immunoblot, HeLa cells; set-up: dose or concentration left out as unconfirmed; settings: timecourse 0-8 h
T3 construct: endogenous in cells; host or cells: HEK293, HeLa
Experimental: as §1, §2
as §3, with “(3×10^5)” for “(5×10^5)”, “(0.5×10^6)” for “(1×10^6)”, “1 μM concentration,” for “the desired concentration (1 nM-10 μM),”, “incubation for the desired time (0-8 h),” for “6 h treatment time,”, “(20,000 g,” for “(20,000g,”, “(Invitrogen).” for “(Invitrogen.”
as §4, with “FIG. 4” for “FIG. 3”, “following 1 μM” for “following”, “treatment at various time points” for “treatment”, “with” for “with increasing concentrations of”, “version 8).” for “version 8)”
(§5) T½ (h) is the time required to deplete 50% of the protein relative to DMSO

Brd4 (L) [4] = target: T4, Brd4 (L) (Homo sapiens, UniProt O60885); experiment: as above; set-up: dose or concentration left out as unconfirmed; settings: timecourse 0-8 h
T4 construct: endogenous in cells; host or cells: HEK293, HeLa
Experimental: as §1, §2
as §3, with “(3×10^5)” for “(5×10^5)”, “(0.5×10^6)” for “(1×10^6)”, “1 μM concentration,” for “the desired concentration (1 nM-10 μM),”, “incubation for the desired time (0-8 h),” for “6 h treatment time,”, “(20,000 g,” for “(20,000g,”, “(Invitrogen).” for “(Invitrogen.”
as §4, with “FIG. 4” for “FIG. 3”, “following 1 μM” for “following”, “treatment at various time points” for “treatment”, “with” for “with increasing concentrations of”, “version 8).” for “version 8)”
as §5

Brd4 (S) [5] = target: T3, Brd4 (S); experiment: Concentration-dependent BET degradation, immunoblot, HeLa cells; settings: 6 h treatment, 1 nM-10 μM; for Dmax: read-out: Dmax (%) maximum degradation observed
Experimental: as §1, §2, §3, §4

Brd4 (L) [6] = target: T4, Brd4 (L); experiment: as above; settings: 6 h treatment, 1 nM-10 μM; for Dmax: read-out: Dmax (%) maximum degradation observed
Experimental: as §1, §2, §3, §4

Brd3 [7] = target: T1, Brd3; experiment: Time-dependent BET degradation, immunoblot, HeLa cells; set-up: endogenous in cells; host or cells: HeLa; settings: Brd3, 1 μM, timecourse 0-8 h
Experimental: as §1, §2
as §3, with “(3×10^5)” for “(5×10^5)”, “(0.5×10^6)” for “(1×10^6)”, “1 μM concentration,” for “the desired concentration (1 nM-10 μM),”, “incubation for the desired time (0-8 h),” for “6 h treatment time,”, “(20,000 g,” for “(20,000g,”, “(Invitrogen).” for “(Invitrogen.”
as §4, with “FIG. 4” for “FIG. 3”, “following 1 μM” for “following”, “treatment at various time points” for “treatment”, “with” for “with increasing concentrations of”, “version 8).” for “version 8)”
as §5

Brd2 [8] = target: T2, Brd2; experiment: as above; set-up: endogenous in cells; host or cells: HeLa; settings: Brd2, 1 μM, timecourse 0-8 h
Experimental: as §1, §2
as §3, with “(3×10^5)” for “(5×10^5)”, “(0.5×10^6)” for “(1×10^6)”, “1 μM concentration,” for “the desired concentration (1 nM-10 μM),”, “incubation for the desired time (0-8 h),” for “6 h treatment time,”, “(20,000 g,” for “(20,000g,”, “(Invitrogen).” for “(Invitrogen.”
as §4, with “FIG. 4” for “FIG. 3”, “following 1 μM” for “following”, “treatment at various time points” for “treatment”, “with” for “with increasing concentrations of”, “version 8).” for “version 8)”
as §5

Brd3 [9] = target: T1, Brd3; experiment: Time-dependent BET degradation, immunoblot, HEK293 cells; set-up: endogenous in cells; host or cells: HEK293; settings: HEK293, Brd3, 1 μM, timecourse 0-8 h
Experimental: as §1, §2
as §3, with “(3×10^5)” for “(5×10^5)”, “(0.5×10^6)” for “(1×10^6)”, “1 μM concentration,” for “the desired concentration (1 nM-10 μM),”, “incubation for the desired time (0-8 h),” for “6 h treatment time,”, “(20,000 g,” for “(20,000g,”, “(Invitrogen).” for “(Invitrogen.”
as §4, with “FIG. 4” for “FIG. 3”, “following 1 μM” for “following”, “treatment at various time points” for “treatment”, “with” for “with increasing concentrations of”, “version 8).” for “version 8)”
as §5

Brd2 [10] = target: T2, Brd2; experiment: as above; set-up: endogenous in cells; host or cells: HEK293; settings: HEK293, Brd2, 1 μM, timecourse 0-8 h
Experimental: as §1, §2
as §3, with “(3×10^5)” for “(5×10^5)”, “(0.5×10^6)” for “(1×10^6)”, “1 μM concentration,” for “the desired concentration (1 nM-10 μM),”, “incubation for the desired time (0-8 h),” for “6 h treatment time,”, “(20,000 g,” for “(20,000g,”, “(Invitrogen).” for “(Invitrogen.”
as §4, with “FIG. 4” for “FIG. 3”, “following 1 μM” for “following”, “treatment at various time points” for “treatment”, “with” for “with increasing concentrations of”, “version 8).” for “version 8)”
as §5

T1 sequence (Q15059 whole entry): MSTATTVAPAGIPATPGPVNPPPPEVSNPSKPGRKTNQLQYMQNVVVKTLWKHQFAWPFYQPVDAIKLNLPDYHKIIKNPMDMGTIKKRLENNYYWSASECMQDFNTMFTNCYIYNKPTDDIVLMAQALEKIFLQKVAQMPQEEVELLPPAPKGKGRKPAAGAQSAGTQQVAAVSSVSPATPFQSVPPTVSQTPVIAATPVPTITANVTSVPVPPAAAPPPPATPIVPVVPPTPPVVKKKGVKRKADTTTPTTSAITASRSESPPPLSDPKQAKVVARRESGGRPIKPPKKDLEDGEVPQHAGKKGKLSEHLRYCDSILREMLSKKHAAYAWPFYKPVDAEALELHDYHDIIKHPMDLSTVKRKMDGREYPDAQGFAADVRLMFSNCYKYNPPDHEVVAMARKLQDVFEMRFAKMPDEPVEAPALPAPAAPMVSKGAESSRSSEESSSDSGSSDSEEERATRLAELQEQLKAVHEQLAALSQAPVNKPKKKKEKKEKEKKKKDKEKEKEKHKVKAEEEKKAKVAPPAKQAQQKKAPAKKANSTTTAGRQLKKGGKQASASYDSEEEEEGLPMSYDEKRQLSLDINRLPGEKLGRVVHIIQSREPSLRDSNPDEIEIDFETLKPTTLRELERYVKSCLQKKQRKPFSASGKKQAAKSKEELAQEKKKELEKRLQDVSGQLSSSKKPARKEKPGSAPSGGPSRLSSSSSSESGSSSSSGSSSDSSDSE
T2 sequence (P25440 whole entry): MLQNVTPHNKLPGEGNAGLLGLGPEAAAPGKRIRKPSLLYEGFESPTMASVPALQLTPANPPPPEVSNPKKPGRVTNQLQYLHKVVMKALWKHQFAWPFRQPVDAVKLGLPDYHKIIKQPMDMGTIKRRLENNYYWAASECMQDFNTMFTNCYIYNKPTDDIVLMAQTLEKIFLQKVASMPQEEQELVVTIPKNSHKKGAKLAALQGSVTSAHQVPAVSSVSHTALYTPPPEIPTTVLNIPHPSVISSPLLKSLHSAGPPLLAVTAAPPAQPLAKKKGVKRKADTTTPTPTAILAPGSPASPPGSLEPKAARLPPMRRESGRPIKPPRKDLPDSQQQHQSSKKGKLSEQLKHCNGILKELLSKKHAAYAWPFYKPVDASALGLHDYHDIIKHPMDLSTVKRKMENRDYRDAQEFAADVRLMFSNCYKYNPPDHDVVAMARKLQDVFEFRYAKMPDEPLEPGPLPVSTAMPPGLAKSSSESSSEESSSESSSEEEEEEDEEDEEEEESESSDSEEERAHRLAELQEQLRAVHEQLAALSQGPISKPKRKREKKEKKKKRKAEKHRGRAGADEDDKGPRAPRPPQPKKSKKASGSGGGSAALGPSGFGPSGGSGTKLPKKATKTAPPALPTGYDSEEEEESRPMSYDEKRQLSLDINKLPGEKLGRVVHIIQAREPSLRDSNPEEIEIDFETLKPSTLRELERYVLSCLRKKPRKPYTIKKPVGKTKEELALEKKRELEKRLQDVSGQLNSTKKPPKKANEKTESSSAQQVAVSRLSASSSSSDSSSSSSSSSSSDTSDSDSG

Q: Which results are given for `CCCC(NC(=O)/C(C#N)=C/c1cccc(Br)n1)c1ccc(OCC=NOCC(=O)NCCOCCOCCOCCOCCOCCNC(=O)c2ccc3c(c2)[C@H](Nc2ccc(Cl)cc2)C[C@H](C)N3C(C)=O)cc1` (stereo partly drawn) [Example 05IB3]?
A: DC50 (Brd3 [1]): ≤ 50 nM; Dmax (Brd3 [1]): ≥ 71%; DC50 (Brd2 [2]): 51 to 500 nM; Dmax (Brd2 [2]): ≥ 71%; Dmax (Brd4 (S) [3]): 100%; Dmax (Brd4 (L) [4]): 79%; DC50 (Brd4 (S) [5]): ≤ 50 nM; Dmax (Brd4 (S) [5]): ≥ 71%; DC50 (Brd4 (L) [6]): 51 to 500 nM; Dmax (Brd4 (L) [6]): ≥ 71%; Dmax at 1 µM (Brd3 [7]): 100%; Dmax at 1 µM (Brd2 [8]): 54%; Dmax at 1 µM (Brd3 [9]): 100%; Dmax at 1 µM (Brd2 [10]): 83%

Q: Which results are given for `CCCC(NC(=O)/C(C#N)=C/c1cccc(Br)n1)c1ccc(OCCOCCOCCOCCOCCOCCOCCNC(=O)c2ccc(-c3ccc4c(c3)[C@H](Nc3ccc(Cl)cc3)C[C@H](C)N4C(C)=O)cc2)cc1` (stereo partly drawn) [Example 05IB6]?
A: DC50 (Brd3 [1]): 51 to 500 nM; Dmax (Brd3 [1]): 51 to 70%; DC50 (Brd2 [2]): 51 to 500 nM; Dmax (Brd2 [2]): 26 to 50%; Dmax (Brd4 (S) [3]): 100%; Dmax (Brd4 (L) [4]): 100%; DC50 (Brd4 (S) [5]): ≤ 50 nM; Dmax (Brd4 (S) [5]): ≥ 71%; DC50 (Brd4 (L) [6]): 51 to 500 nM; Dmax (Brd4 (L) [6]): ≥ 71%; Dmax at 1 µM (Brd3 [7]): 90%; Dmax at 1 µM (Brd2 [8]): 79%; Dmax at 1 µM (Brd3 [9]): 74%; Dmax at 1 µM (Brd2 [10]): 76%

Q: What does the source list for `CCCC(NC(=O)/C(C#N)=C/c1nccs1)c1ccc(OCCOCCOCCOCCOCCOCCOCCNC(=O)c2ccc(-c3ccc4c(c3)[C@H](Nc3ccc(Cl)cc3)C[C@H](C)N4C(C)=O)cc2)cc1` (stereo partly drawn) [Example 05IB9]?
A: DC50 (Brd3 [1]): ≤ 50 nM; Dmax (Brd3 [1]): 51 to 70%; DC50 (Brd2 [2]): ≤ 50 nM; Dmax (Brd2 [2]): 51 to 70%; Dmax (Brd4 (S) [3]): 100%; Dmax (Brd4 (L) [4]): 100%; DC50 (Brd4 (S) [5]): ≤ 50 nM; Dmax (Brd4 (S) [5]): ≥ 71%; DC50 (Brd4 (L) [6]): ≤ 50 nM; Dmax (Brd4 (L) [6]): ≥ 71%; Dmax at 1 µM (Brd3 [7]): 80%; Dmax at 1 µM (Brd2 [8]): 76%; Dmax at 1 µM (Brd3 [9]): 60%; Dmax at 1 µM (Brd2 [10]): 73%
